Measured values: US5098706A, “Juvenile hormone esterase for insect control” (The Regents of the University of California, priority 1988, dated 1992)
pKd: −log10 of the molar value.

Key:
[1] = target: T1, juvenile hormone esterase (Heliothis virescens, UniProt P12992); assay: Juvenile hormone esterase kinetics for juvenile hormone; format: biochemical; details: substrate juvenile hormone
T1 sequence (P12992 20-564): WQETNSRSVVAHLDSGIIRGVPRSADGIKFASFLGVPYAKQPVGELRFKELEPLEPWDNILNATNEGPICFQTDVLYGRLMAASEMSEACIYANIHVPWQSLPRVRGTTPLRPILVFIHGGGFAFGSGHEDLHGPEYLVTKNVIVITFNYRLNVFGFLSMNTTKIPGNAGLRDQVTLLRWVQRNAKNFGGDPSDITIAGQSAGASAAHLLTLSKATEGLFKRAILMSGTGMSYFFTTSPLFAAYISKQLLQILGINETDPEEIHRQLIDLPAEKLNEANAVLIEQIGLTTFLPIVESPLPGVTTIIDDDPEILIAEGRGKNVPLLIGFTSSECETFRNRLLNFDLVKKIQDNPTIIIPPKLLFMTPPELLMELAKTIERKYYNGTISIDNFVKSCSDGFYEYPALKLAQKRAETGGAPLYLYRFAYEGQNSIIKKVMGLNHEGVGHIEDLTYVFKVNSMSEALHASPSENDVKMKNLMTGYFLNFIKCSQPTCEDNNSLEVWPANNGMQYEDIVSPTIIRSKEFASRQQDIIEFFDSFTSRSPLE
Text: (§1) Juvenile hormone esterase is biochemically interesting in that it is an extraordinarily efficient enzyme. The very low Km ^31 6×10^-8 M of juvenile hormone esterase, its high kcat, and the low molarity of the enzyme even in the last larval stadium indicate that production of even small amounts of juvenile hormone esterase (<0.1% of total protein) should overpower the ability of the corpora allata to make juvenile hormone. This destruction of the juvenile hormone will be […] by the juvenile hormone hemolymph carrier protein.

[2] = target: T2, juvenile hormone hemolymph carrier protein (H. virescens) (Heliothis virescens, UniProt Q25175); assay: Binding of juvenile hormone by the hemolymph carrier protein; details: juvenile hormone bound by carrier protein
T2 construct: preparation not described in the excerpts
T2 sequence (Q25175 19-242): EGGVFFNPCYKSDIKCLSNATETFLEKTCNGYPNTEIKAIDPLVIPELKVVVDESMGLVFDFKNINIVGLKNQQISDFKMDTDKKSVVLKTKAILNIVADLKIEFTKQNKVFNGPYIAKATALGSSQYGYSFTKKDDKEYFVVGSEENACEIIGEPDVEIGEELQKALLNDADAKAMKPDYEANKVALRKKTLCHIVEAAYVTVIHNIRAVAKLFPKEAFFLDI
Text: as §1

tomato hornworm larvae = assay: Prevention of cuticular blackening in tomato hornworm larvae injected with juvenile hormone esterase; format: in vivo, Manduca sexta; details: third stadium larvae injected with 9 μg (148 pmoles) juvenile hormone esterase, then 0.17 nmoles epofenonane
Experimental: Tomato hornworm larvae, obtained from Zoecon Corp., were injected with the affinity purified juvenile hormone esterase obtained from Example I. Injections were performed at 10 hours after lights on the day before ecdysis to the third stadium. Larvae were reared on a 14L"10D photoperiod. Injections were made in 1.5 μl of buffer cocktail containing 3-10 μg (49-164 pmoles) of esterase. Total protein in each injection was kept constant at 10 μg with […] bovine serum albumen (BSA). Control injections in buffer contained 10 μg BSA or 12 μg larval blood protein from which the esterase was removed.
FIG. 2 illustrates third stadium tomato hornworm larvae after injection with 9 μg (148 pmoles) of juvenile hormone esterase as in FIG. 1, but then treated with 17 nmoles epofenonane (left), 0.17 nmoles epofenonane (middle) or no epofenonane (right). […] Epofenonane is a juvenile hormone chemical mimic, although it is not a substrate for juvenile hormone esterase. Thus, FIG. 2 illustrates that even a dose of juvenile hormone which is too low completely to prevent an anti-juvenile hormone effect can still effect a localized response.

juvenile hormone
Km [1]: 0.06 µM
pKd [2]: 6.21

CCc1ccc(OCCC(CC)CCC2OC2(C)CC)cc1 (stereo not drawn) [epofenonane]
prevention of blackening of the cuticle (tomato hornworm larvae): not sufficient to prevent completely the blackening of the cuticle
